Data reported in US11434479B2, “Sialic acid binding polypeptide” (priority 2017, dated 2022).
Changes are numbered by the printed parent chain.

Key:
[1] = target: T1, Streptococcus pneumoniae NanB fragment (residues 30-697, SEQ ID NO:4) variant Sia-PS2, D270A (Streptococcus pneumoniae serotype 4, UniProt Q54727, D270A); assay: Bio-layer Interferometry (BLI) steady-state binding to immobilized oligosaccharides; details: in words
T1 construct: exemplified by a NanB fragment (residues 30-697); made in house; host or cells: pET28a+ based plasmid
T1 sequence (Q54727 30-692 D270A): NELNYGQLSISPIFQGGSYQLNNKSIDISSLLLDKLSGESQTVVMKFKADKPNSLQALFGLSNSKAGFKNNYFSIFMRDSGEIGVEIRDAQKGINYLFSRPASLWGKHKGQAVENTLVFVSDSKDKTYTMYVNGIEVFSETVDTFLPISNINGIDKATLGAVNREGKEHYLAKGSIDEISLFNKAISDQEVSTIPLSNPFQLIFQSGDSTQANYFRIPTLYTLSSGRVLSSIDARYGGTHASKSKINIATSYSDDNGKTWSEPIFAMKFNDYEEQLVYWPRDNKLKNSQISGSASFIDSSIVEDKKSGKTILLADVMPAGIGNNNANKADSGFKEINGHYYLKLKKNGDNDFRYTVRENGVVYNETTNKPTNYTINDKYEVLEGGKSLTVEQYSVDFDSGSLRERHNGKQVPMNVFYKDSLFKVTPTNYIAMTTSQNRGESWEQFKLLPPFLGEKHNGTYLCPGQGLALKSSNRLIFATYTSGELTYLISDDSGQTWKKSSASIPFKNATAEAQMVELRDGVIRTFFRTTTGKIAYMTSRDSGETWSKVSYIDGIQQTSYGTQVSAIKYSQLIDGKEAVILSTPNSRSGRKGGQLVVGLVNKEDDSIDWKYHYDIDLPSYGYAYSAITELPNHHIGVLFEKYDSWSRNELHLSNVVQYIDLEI
Description: (§1) Lsp=lactose (no sialic acid), 3′SL=α2,3-sialyllactose, 6′SL=α2,6-sialyllactose, GD3=GD3 oligosaccharide that contains a terminal α2,8-linked Neu5Ac residue and an internal α2,3-linked Neu5Ac residue.
(§2) The pan-specific sialic acid-recognizing affinity reagent of the invention is exemplified by a NanB fragment (residues 30-697; SEQ ID NO:4) with a single mutation. Exemplary mutation sites include Y653, D270, and E541. Exemplary pan-specific affinity reagents, each having a single mutation in the NanB GH domain as noted, are shown in Table 2 and include Sia-PS1 (Y653F), Sia-PS2 (D270A), Sia-PS3 (D270N), Sia-PS4 (E541A), and Sia-PS5 (E541Q). […] They reduce (Sia-PS2 and Sia-PS3) or effectively eliminate (Sia-PS1, Sia-PS4, and Sia-PS5) catalytic activity, and they broaden specificity for sialic acid ligand binding. The pan-specific sialic acid-recognizing affinity reagent we chose for further validation study was Sia-PS1 that contains the Y653F at active site residue Tyr653. This one mutation, which involves removal of a single hydroxyl group, not only eliminates enzyme activity, but astonishingly introduces pan-specific binding into the mutated, inactivated enzyme, despite its distance from the carbohydrate binding module (CBM) domain of the NanB.
(§3) The flowchart presented in FIG. 2 outlines schematically the methods employed in Example I and II to screen, optimize and select the Lectenz® candidates. The specificity and affinity of potential Lectenz® candidates is evaluated through structurally-guided site-specific and/or site-saturation mutagenesis assays designed to enable the selection of optimal clones. Bio-layer Interferometry (BLI) is used to determine the binding kinetics and affinities for binding to glycans and glycoproteins. Affinity chromatography is performed by immobilizing the Lectenz® candidates in a column format to evaluate their ability to fractionate sialylated- and asialo-glycans and glycoconjugates. All promising Lectenz® candidates are screened against the glycan array at the CFG, which currently contains over 600 O- and N-linked glycans.
(§4) Steady-state binding constants between Lectenz® candidates and sialic acid ligands were measured by BLI.

[2] = target: T2, Streptococcus pneumoniae NanB fragment (residues 30-697, SEQ ID NO:4) variant Sia-PS5, E541Q (Streptococcus pneumoniae serotype 4, UniProt Q54727, E541Q); assay: as above; details: in words
T2 construct: exemplified by a NanB fragment (residues 30-697); poly-histidine; made in house; host or cells: pET28a+ based plasmid
T2 sequence (Q54727 30-692 E541Q): T1 sequence (Q54727 30-692 D270A) with A241D, E512Q
Description: as §1, §2, §3, §4

| SMILES | binding affinity [1] | binding affinity [2] | KD value [1] |
| --- | --- | --- | --- |
| CC(=O)N[C@H]1[C@H]([C@H](O)[C@H](O)CO)O[C@@](OC[C@H]2O[C@@H](O[C@H]3[C@H](O)[C@@H](O)C(O)O[C@@H]3CO)[C@H](O)[C@@H](O)[C@H]2O)(C(=O)O)C[C@@H]1O (stereo partly shown) [6′SL, 6′-sialyllactose (Neu5Acα2,6Galβ1, 4Glcβ, or 6′SL)] | micromolar or sub-micromolar | micromolar or sub-micromolar | – |
| CC(=O)N[C@H]1[C@H]([C@H](O)[C@H](O)CO)O[C@@](O[C@H](CO)[C@@H](O)[C@@H]2O[C@@](O[C@H]3[C@@H](O)[C@@H](CO)O[C@@H](O[C@H]4[C@H](O)[C@@H](O)C(O)O[C@@H]4CO)[C@@H]3O)(C(=O)O)C[C@H](O)[C@H]2NC(C)=O)(C(=O)O)C[C@@H]1O (stereo partly shown) [GD3, Neu5Acα2,8Neu5Acα2,3Galβ1, 4Glcβ] | micromolar or sub-micromolar | micromolar or sub-micromolar | – |
| CC(=O)N[C@H]1[C@H]([C@H](O)[C@H](O)CO)O[C@@](O[C@H]2[C@@H](O)[C@@H](CO)O[C@@H](O[C@H]3[C@H](O)[C@@H](O)C(O)O[C@@H]3CO)[C@@H]2O)(C(=O)O)C[C@@H]1O (stereo partly drawn) [3′SL, α2,3-sialyllactose] | micromolar or sub-micromolar | micromolar or sub-micromolar | higher KD value |
